Experimental data: patent US20160326098A1, “Pharmaceutically Active Compound for Use as Anti-inflammatory Agent” (Pax Forschung GmbH, priority 2013, published 2016)

System: nitrite/nitrate (NOx)
Test: Nitrite/nitrate level, colitis animals, comparison with GM-20 (FIG. 35)
Format: in vivo, rats
Details: 1.11 mmol/kg body weight, vs sham control group P
Protocol: The levels of plasma nitrite/nitrate (NOx), stable end products of NO were measured by the Griess reaction. This assay depends on the reduction of nitrate to nitrite, which is then converted into a colored azo dye compound that is detected spectrophotometrically at 540 nm.
The above-described clinical studies were repeated with animals having colitis which was induced as described above. 20 animals (rats) were randomly divided into four groups, wherein group L served as sham-operated control, having no colitis, group M served as second control having colitis but receiving no further treatment, group N having colitis and being treated with 1.11 mmol/kg body weight of ASS and group O having colitis and being treated with 1.11 mmol/kg of the compound according to the invention. One day after the animals received the enema with TNBS (40 mg/kg i.c.), wherein the animals of group L only received the respective solvent, the animals of group N and O were treated with ASS and the compound according to the invention, respectively. The other animals only received the respective solvent again. Two days after the enema the effects of the treatment were determined by measurement of body weight, blood gas analysis and biopsy. […] Surgery was performed to allow registration of the hemodynamic parameters at 1 h intervals for 6 h (cardiac output [CO] data were measured only at the end of the experiments). […] In addition, fluorescence confocal endomicroscopy was performed to examine the microvasculature and morphologic changes of the mucosa of the distal colon, and full-thickness tissue samples and venous blood samples were taken to determine the biochemical changes in the colon and plasma.
The tests were conducted according to the above described protocol. […] Comparative compound GM-20 is described in the state of the art as being suitable for the therapeutic treatment pathologic disorders characterized by degranulation of the mast cells caused by immunogenic hyperstimulation (see U.S. Pat. No. 5,506,224) The nitrite/nitrate level was measured as described above.

How did the nitrite/nitrate level turn out when `CC(=O)Oc1ccccc1C(=O)NCCO` [GM-20] was run?
The nitrite/nitrate level was “increased nitrite/nitrate level”.
